In patent US10047151B2, “Methods for the treatment of cancer and inflammatory diseases using cereblon as a predictor” (Celgene Corporation, priority 2011, dated 2018):

Experiments:
Type in all cases: cell-based
DLBCL cells = test: 3H-thymidine incorporation cell proliferation assay in DLBCL cell lines; conditions: 0.01-100 μM, 5 days
Description: Cell proliferation was assessed using the ^3H-thymidine incorporation assay. Briefly, logarithmically growing DLBCL cells were cultured in 96-well culture plates in complete media with the indicated concentration of lenalidomide or DMSO control. Following incubation at 37° C. for 5 days, 1 μCi ^3H-thymidine (GE Healthcare Biosciences, Piscataway, N.J.) was added to each well for the final 5 hours of incubation. Cells were then harvested onto UniFilter GF/C filter plates (PerkinElmer, Waltham, Mass.) using a cell harvester (Tomtec, Hamden, Conn.) and the plates were allowed to dry overnight. The ^3H-thymidine incorporation of each well was then measured using a TopCount NXT Microplate Scintillation and Luminescence Counter (Packard BioScience, Meriden, Conn.). The percent inhibition of cell proliferation was calculated and normalized to DMSO control.
In order to define the place of lenalidomide for DLBCL therapy in specific patient populations and to understand the molecular mechanisms of efficacy, a panel of DLBCL cell lines was collected in this study. The DLBCL subtypes of the cell lines were confirmed based on literature information (Lenz G, et al., Proc Natl Acad Sci USA 2008; 105: 13520-5) and molecular analysis, including intracellular NF-κB activity or IRF4 expression, as well as gene expression profiling of key signature genes of activated B cells.

CRBN = CRBN mRNA and protein expression after drug treatment (RT-PCR, Western blot); conditions: H929 and U266B1 cells; pomalidomide 1 μM, lenalidomide 10 μM
U266 = test: Ubiscan ubiquitinated peptide quantification in U266
Description: The effects of lenalidomide and pomalidomide on protein ubiquination were investigated using CST Ubiscan technology. Treated samples were sent to Cell Signaling Technology for ubiquinated peptide enrichment and quantification by LC/MS/MS. […] In the MG132 combo, more ubiquinated peptides are observed (compared with their controls). […] These peptides correspond to 176 unique proteins. Top few groups are: nucleosome, chromatin, protein-DNA complex assembly, Histone H2A. Among the 176 proteins, we found five proteins that belong to “ubiquitin-protein ligase activity” category, they are MDM2, HERC2, UBE2D3 (only by pomalidomide), UBE2N (lenalidomide only), UBE2M (both). Results for hits categorized by conditions are shown in FIGS. 8 & 9 (without MG132) and FIGS. 10 & 11 (with MG132).

NF-κB = NF-κB subunit DNA binding ELISA on nuclear extracts
Description: Logarithmically growing DLBCL cells were treated with test agents as indicated. Nuclear extracts were prepared using a Nuclear Extract Kit (Active Motif, Carlsbad, Calif.) and protein concentration was determined by the bicinchoninic acid assay (Thermo Scientific, Rockford, Ill.). Detection of NF-κB activity was performed using a sensitive oligo-based colorimetric enzyme-linked immunosorbent assay (ELISA) method, according to the instructions of the manufacturer (Active Motif). Briefly, nuclear extracts of DLBCL cells were hybridized to 96-well plates coated with wild-type DNA oligonucleotides containing a single copy of the NF-κB consensus binding sequence. Bound NF-κB protein was then detected with antibodies specific for p50, p65 (Rel A) or […] subunits. A secondary antibody conjugated to horseradish peroxidase was added and plates were then read by spectrophotometry at 450 nm with a reference wavelength of 655 nm. NF-κB activity was calculated based on OD450/655 nm.
The effect of lenalidomide on NF-κB activity in various DLBCL cells was examined by measuring the level of NF-κB subunit proteins binding to consensus sequences and the NF-κB-driven luciferase activity. […] In contrast, lenalidomide had no effect on NF-κB DNA binding in GCB-DLBCL lines nor in normal peripheral blood mononuclear cells.

IRF4 = IRF4 protein level in H929 cells (Western blot)
Description: In H929 cells, the cell cycle arrest in G1 phase by the drugs coincides with a reduction of tumor suppressor, pRb, phosphorylation and the oncogene and myeloma survival factor IRF4.

[1] = test system: CARD11-BCL-10-MALT1 (CBM) complex; test: MALT1-induced BCL-10 cleavage (CBM complex activity) in ABC-DLBCL cells
Description: Cells were treated with test compounds or 0.1% DMSO for indicated times. Following incubation, cells were collected, pelleted with centrifugation, and immediately lysed in 0.1 ml lysis buffer containing 10 mM Tris-HCl pH 8.0, 10 mM EDTA, 150 mM NaCl, 1% NP-40, 0.5% SDS, 1 mM DTT, 1 mM Na3VO4, plus Complete protease inhibitor cocktail (Roche Applied Science, Indianapolis, Ind.), then processed with a Qiashredder™ (Qiagen, Valencia, Calif.) for 1 minute and frozen on dry ice. Samples were diluted with 6×SDS sample buffer and then boiled for 5 min. Approximately 30 μl of this mixture was loaded per lane on a Criterion Precast 4-12% Tris-HCl gel (Bio-Rad, Hercules, Calif.), electrophoresed, and transferred to nitrocellulose membranes (Bio-Rad, Hercules, Calif.). The membranes were blocked for 1 hour at room temperature using blocking buffer (LI-COR Biosciences, Lincoln, Nebr.), then incubated overnight at 4° C. with antibodies against either BCL-10, IRF4, CRBN or β-actin. Membranes were washed and incubated with IRDye Secondary Antibodies (1:30,000) for 1 hour at room temperature. A standard protocol was then followed for signal detection, using the Odyssey® Infrared Imaging System and software (LI-COR Biosciences, Lincoln, Nebr.).
This mutation has been reported to cause constitutive formation and activation of CARD11-BCL-10-MALT1 (CBM) complex of BCR signaling pathway, leading to NF-κB overactivation in lymphoma cells. See Lenz, G., et al., Science 2008, 319: 1676-9; Thome, M. et al., Cold Spring Harb Perspect Biol. 2010; 2: a003004. To investigate the potential involvement of CBM complex in lenalidomide-induced IRF4 inhibition in these cells, the effect of lenalidomide on the complex activity was examined by measuring MALT1 paracaspase enzymatic activity. MALT1 is activated upon association with BCL-10 and CARD11 to form active CBM complex and then cleaves its binding partners, such as BCL-10.

## Nc1cccc2c1CN(C1CCC(=O)NC1=O)C2=O (centres unmarked) [lenalidomide, 3-(4-amino-1-oxo-1,3-dihydro-isoindol-2-yl)-piperidine-2,6-dione]
DLBCL cells; ABC-DLBCL cell lines, except for OCI-Ly3
  proliferation of cells: significantly inhibited
DLBCL cells; PBML and GCB-DLBCL cells
  proliferation of cells: minimal effects
CRBN
  mRNA and protein expression of CRBN: affected neither mRNA nor protein expression of CRBN significantly
U266
  Ub-proteins increased in abundance: IKZF3, RPL19, PCM1 and NEDD8
  proteins decreased in abundance: GNB2L1 and HNRNPR
NF-κB; GCB-DLBCL lines and normal peripheral blood mononuclear cells
  NF-κB DNA binding: no effect
NF-κB; lenalidomide-insensitive ABC-DLBCL OCI-Ly3 line with CARD11 mutation
  NF-κB inhibition: not by lenalidomide
NF-κB; several ABC-DLBCL cell lines, concentration-dependent
  DNA binding by Rel A/p65, p50 and c-rel/p70 NF-κB subunits: partially inhibited
IRF4
  total level of protein IRF4: decreased
[1]; OCI-Ly3 cells
  BCL-10 cleavage: neither the PKCβ inhibitor nor lenalidomide had any effect
[1]; sensitive ABC-DLBCL cell lines OCI-Ly10 and U2932
  MALT1-induced BCL-10 cleavage: inhibited MALT1-induced BCL-10 cleavage in a concentration-dependent manner
